Read-outs that look alike come from different tables or passages of the source.
Columns and labels:
[1] = test system: HCV replicon in Huh7 cells; experiment: HCV replicon cell-based assay (FRET); conditions: Hepatitis C virus
Summary of the method: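 Huh7 cells stably carrying a genotype 1b HCV replicon (IRES-neo-EMCV-IRES-NS3-NS5B) were treated with compound for 4 days at 37 °C in 0.5% DMSO final. Lysates containing 10 μM FRET peptide RET S1 were read kinetically at 340/490 nm to give NS3 protease activity, from which EC50 was derived.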

[2] = test system: human pancreatic chymotrypsin; experiment: Specificity assay, chymotrypsin; format: biochemical; conditions: 2 hr pre-incubation
Experimental: (§1) The specificities of compounds of the present invention were determined against a variety of serine proteases: human sputum elastase (HS), porcine pancreatic elastase (PPE) and human pancreatic chymotrypsin and one cysteine protease: human liver cathepsin B. In all cases a 96-well plate format protocol using colorimetric p-nitroaniline (pNA) substrate specific for each enzyme was used as described previously (Patent WO 00/09543) with some modifications to the serine protease assays. All enzymes were purchased from Sigma while the substrates were from Bachem.
(§2) Each assay included a 2 hr enzyme-inhibitor pre-incubation at room temperature followed by addition of substrate and hydrolysis to ˜30% conversion as measured on a Spectramax Pro microplate reader. Compound concentrations varied from 100 to 0.4 μM depending on their potency. […]
(§3) The percentage of inhibition was calculated using the formula: [1−((UVinh−UVblank)/(UVctl−UVblank))]×100 […]

human liver cathepsin B = molecular target: T1, human liver cathepsin B (Homo sapiens, UniProt P07858); experiment: Specificity assay, cathepsin B; format: biochemical; conditions: 2 hr pre-incubation
T1 construct: purchased Sigma
Experimental: as §1, §2, §3

In the case of `C=CC1C[C@]1(NC(=O)[C@@H]1C[C@@H](Oc2cc(-c3ccccc3)nc3cc(OC)ccc23)CN1C(=O)[C@@H](NC(=O)OC(C)(C)C)C(C)(C)C)C(=O)NS(=O)(=O)C1(C)CC1` (stereo in doubt) [Compound 1, (1-{4-(7-Methoxy-2-phenylquinolin-4-yloxy)-2-[1-(1-methylcyclopropanesulfonylaminocarbonyl)-2-vinylcyclopropylcarbamoyl]pyrrolidine-1-carbonyl}-2,2-dimethylpropyl)carbamic acid tert-butyl ester], the EC50 ([1]; Huh-7, 96 h, Huh7 cells, 4 days, read-out: EC50 value in the replicon assay) is reported as 0.0139 µM, the EC50 ([1]; Huh-7, HCV replicon, read-out: EC50 range) is reported as under 0.05 µM and the IC50 [2] is reported as over 100 µM. It also gave an IC50 (human liver cathepsin B) of over 100 µM.
